Reference: ChEMBL document CHEMBL1201862, “PubChem BioAssay data set” (2004)
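Cultured in 96-well plates, cells were exposed to test compound for 48 hours across five concentrations. GI50 is the concentration that inhibits growth by half.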 The source made the active and inactive calls. Cut-off read from the data, not from the text of the source: active = GI50 up to about 1.1 µM and inactive = higher.

Tests used:
Assay in all cases: NCI-60 cell line screen, 48 h
MCF7 = tested on: MCF7
HOP-92 = tested on: HOP-92
A498 = tested on: A498
RXF 393 = tested on: RXF 393
TK-10 = tested on: TK-10
HCT-15 = tested on: HCT-15
BT-549 = tested on: BT-549
PC-3 = tested on: PC-3
786-0 = tested on: 786-0
HOP-62 = tested on: HOP-62
EKVX = tested on: EKVX
OVCAR-4 = tested on: OVCAR-4
M14 = tested on: M14
NCI-H226 = tested on: NCI-H226
RPMI-8226 = tested on: RPMI-8226
Hs-578T = tested on: Hs-578T
UACC-62 = tested on: UACC-62
SK-OV-3 = tested on: SK-OV-3
Malme-3M = tested on: Malme-3M

SMILES | GI50 (MCF7) | GI50 (HOP-92) | GI50 (A498) | GI50 (RXF 393) | GI50 (TK-10) | GI50 (HCT-15) | GI50 (BT-549) | GI50 (PC-3) | GI50 (786-0) | GI50 (HOP-62) | GI50 (EKVX) | GI50 (OVCAR-4) | GI50 (M14) | GI50 (NCI-H226) | GI50 (RPMI-8226) | GI50 (Hs-578T) | GI50 (UACC-62) | GI50 (SK-OV-3) | GI50 (Malme-3M)
Cc1cc2nc3c(C(O)CO)nn(-c4ccccc4)c3nc2cc1C (stereo not given) | 20.2 µM (inactive) | 15.5 µM (inactive) | 12.1 µM (inactive) | 14.5 µM (inactive) | 14 µM (inactive) | 14.9 µM | 18.8 µM (inactive) | 14.4 µM (inactive) | 17.9 µM (inactive) | 19.4 µM (inactive) | 19.6 µM (inactive) | 20.2 µM (inactive) | 31.3 µM (inactive) | 30.6 µM (inactive) | 6.21 µM (inactive) | 31.6 µM (inactive) | – | – | –
C[N+](C)(C)/C=N\c1cccc2c1CCCC2 | > 100 µM (inactive) | 17.7 µM (inactive) | > 100 µM (inactive) | > 100 µM (inactive) | > 100 µM (inactive) | > 100 µM | 57.1 µM (inactive) | 39.8 µM (inactive) | > 100 µM (inactive) | > 100 µM (inactive) | > 100 µM (inactive) | > 100 µM (inactive) | > 100 µM (inactive) | 58.2 µM (inactive) | 21.5 µM (inactive) | > 100 µM (inactive) | > 100 µM (inactive) | > 100 µM (inactive) | > 100 µM (inactive)
COC1CC(C)(NC(=O)C(F)(F)F)C2OC(c3ccccc3)OCC2O1 (stereo not given) | > 100 µM (inactive) | > 100 µM (inactive) | > 100 µM (inactive) | > 100 µM (inactive) | > 100 µM (inactive) | > 100 µM | > 100 µM (inactive) | > 100 µM (inactive) | > 100 µM (inactive) | > 100 µM (inactive) | > 100 µM (inactive) | > 100 µM (inactive) | > 100 µM (inactive) | > 100 µM (inactive) | > 100 µM (inactive) | > 100 µM (inactive) | > 100 µM (inactive) | > 100 µM (inactive) | > 100 µM (inactive)
Cc1c(Cc2ccccc2)n(COCCCO)c(=O)[nH]c1=O | > 100 µM (inactive) | > 100 µM (inactive) | > 100 µM (inactive) | > 100 µM (inactive) | > 100 µM (inactive) | > 100 µM | > 100 µM (inactive) | > 100 µM (inactive) | > 100 µM (inactive) | > 100 µM (inactive) | > 100 µM (inactive) | > 100 µM (inactive) | > 100 µM (inactive) | > 100 µM (inactive) | > 100 µM (inactive) | > 100 µM (inactive) | > 100 µM (inactive) | > 100 µM (inactive) | > 100 µM (inactive)
CC(C)N(C)C(=O)C12C3C4C1C1C2C3C41C#N (stereo not given) | > 100 µM (inactive) | > 100 µM (inactive) | > 100 µM (inactive) | > 100 µM (inactive) | > 100 µM (inactive) | > 100 µM | > 100 µM (inactive) | > 100 µM (inactive) | > 100 µM (inactive) | > 100 µM (inactive) | > 100 µM (inactive) | > 100 µM (inactive) | > 100 µM (inactive) | – | – | > 100 µM (inactive) | > 100 µM (inactive) | – | –
CC(NNC(=O)c1cc[n+]([BH2-]C#N)cc1)c1ccc(Cl)c(Cl)c1 (stereo not given) | 26.9 µM (inactive) | 20.6 µM (inactive) | 33.7 µM (inactive) | 38.5 µM (inactive) | 28.6 µM (inactive) | 31.6 µM | 27.9 µM (inactive) | 22.9 µM (inactive) | 47.5 µM (inactive) | 45 µM (inactive) | 30.1 µM (inactive) | 30.9 µM (inactive) | 38.1 µM (inactive) | 22.4 µM (inactive) | 33.5 µM (inactive) | 28.4 µM (inactive) | 29.7 µM (inactive) | 27 µM (inactive) | 30.9 µM (inactive)
CC(C)CC1c2[nH]c3ccccc3c2C[C@H]2C(=O)NC(COC(C)(C)C)C(=O)N12 (stereo not given in full) | 31.6 µM (inactive) | 31.8 µM (inactive) | 30.3 µM (inactive) | 14.7 µM (inactive) | 23 µM (inactive) | 26.9 µM | 23.6 µM (inactive) | 22 µM (inactive) | 32.8 µM (inactive) | 46.2 µM (inactive) | 24.9 µM (inactive) | 30.5 µM (inactive) | 20.8 µM (inactive) | 33.2 µM (inactive) | 23.9 µM (inactive) | 13.3 µM (inactive) | 18.2 µM (inactive) | > 100 µM (inactive) | 19.6 µM (inactive)
CC(C)=CCC/C(C)=C/CC/C(C)=C/CSc1ccc(Cl)cc1C(=O)O | 17.3 µM (inactive) | 22.2 µM (inactive) | 19.8 µM (inactive) | 24.3 µM (inactive) | 19.2 µM (inactive) | 20.4 µM | 20.2 µM (inactive) | 16.2 µM (inactive) | 17.1 µM (inactive) | 14.9 µM (inactive) | 18.6 µM (inactive) | 27.7 µM (inactive) | 19.6 µM (inactive) | 17.4 µM (inactive) | 22.6 µM (inactive) | 23.2 µM (inactive) | 17.9 µM (inactive) | 17.3 µM (inactive) | 19.2 µM (inactive)
